Eight compounds from ChEMBL document CHEMBL1201862, “PubChem BioAssay data set” (2004) can be followed below.

Test systems include A549; CCRF-CEM; HCT-116; IGROV-1; M14; MCF7; MDA-MB-231; MDA-N; MOLT-4; OVCAR-3; OVCAR-8; PC-3; SF-539; SNB-19; SR; SW-620; TK-10; UACC-257; UO-31.
Test in all cases: DTP human tumour cell line panel, 48 h

Structures are written as SMILES.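 48-hour exposure; five concentrations; linearly interpolated endpoints. At the GI50, growth is halved.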 Activity calls are given as the source filed them. Cut-off read from the data, not from the text of the source: active = GI50 up to about 1.1 µM and inactive = higher. A value given as a limit tells only on which side of the number the result lay.

Take `O=C(NCCN1CCCCC1)c1ccc(I)cc1`: the GI50 with A549, with CCRF-CEM, with HCT-116, in the experiment on IGROV-1, with M14 and in the experiment on MCF7 was > 100 µM (inactive) each time. Further, the GI50 in the experiment on MDA-MB-231, in the experiment with MDA-N, in the experiment with MOLT-4, in the experiment on OVCAR-3, in the experiment on OVCAR-8 and with PC-3 was > 100 µM (inactive) each time. The GI50 in the experiment with SF-539, in the experiment on SNB-19, with SR, in the experiment with SW-620, in the experiment on TK-10 and in the experiment on UACC-257 was > 100 µM (inactive) throughout. Besides, the GI50 in the experiment on UO-31 is > 100 µM (inactive).

`Oc1nc(S)nc2c1CN(CCCN1CCOCC1)CN2`: the GI50 in the experiment with A549 was 38.6 µM (inactive); in the experiment on HCT-116 it was 34.4 µM (inactive); in the experiment with IGROV-1, 40.6 µM (inactive); with M14 it was 25.5 µM (inactive); in the experiment on MCF7, 34.7 µM (inactive); in the experiment with MDA-MB-231, 26.7 µM (inactive). Besides, the GI50 in the experiment with MDA-N was 43.6 µM (inactive); in the experiment with MOLT-4, 28.2 µM (inactive); in the experiment with OVCAR-3, 38.5 µM (inactive); in the experiment on OVCAR-8, 31 µM (inactive); in the experiment with PC-3, 22.1 µM (inactive); in the experiment with SF-539, 25.5 µM (inactive). Besides, the GI50 was > 100 µM (inactive) with SNB-19; 28.4 µM (inactive) in the experiment with SR; 32 µM (inactive) with SW-620; 56.6 µM (inactive) in the experiment with TK-10; 40.2 µM (inactive) in the experiment on UACC-257; 36.8 µM (inactive) in the experiment on UO-31.

Turning to `O=c1[nH]nc(-c2ccccc2)n1-n1cccc1`, the GI50 in the experiment on A549 is > 100 µM (inactive); with CCRF-CEM it was 50.8 µM (inactive); in the experiment with HCT-116, > 100 µM (inactive); with IGROV-1 it was > 100 µM (inactive); in the experiment with M14, > 100 µM (inactive); with MCF7 it was > 100 µM (inactive). Further, the GI50 in the experiment on MDA-MB-231 was > 100 µM (inactive); in the experiment on MDA-N, > 100 µM (inactive); in the experiment on MOLT-4, 35.6 µM (inactive); in the experiment with OVCAR-3, > 100 µM (inactive); in the experiment with OVCAR-8, > 100 µM (inactive); in the experiment with PC-3, > 100 µM (inactive). Also, the GI50 is > 100 µM (inactive) with SNB-19; 9.29 µM (inactive) with SR; > 100 µM (inactive) in the experiment on SW-620; > 100 µM (inactive) with TK-10; > 100 µM (inactive) with UACC-257; > 100 µM (inactive) in the experiment with UO-31.

As for `COc1ccc(/C=C2\N=C(SC)N(CN3CCCCC3)C2=O)cc1`, the GI50 in the experiment with A549, in the experiment with HCT-116, in the experiment on IGROV-1, in the experiment on M14, in the experiment on MCF7 and in the experiment on MDA-MB-231 was > 100 µM (inactive) throughout. Moreover, the GI50 in the experiment on MDA-N, with MOLT-4, in the experiment with OVCAR-3, with OVCAR-8, in the experiment on PC-3 and in the experiment on SNB-19 was > 100 µM (inactive) each time. Also, the GI50 with SR, in the experiment with SW-620, with TK-10 and in the experiment with UO-31 was > 100 µM (inactive) each time.

As for `COc1cc2c[n+](C)c3c4cc(OC)c(OCc5ccccc5)cc4c(OCc4ccccc4)cc3c2cc1OC`, the GI50 in the experiment on A549 was 30 µM (inactive); in the experiment on CCRF-CEM, 4.68 µM (inactive); with HCT-116, 3.76 µM (inactive); in the experiment on IGROV-1, 1.69 µM (inactive); in the experiment with M14, 9.66 µM (inactive); in the experiment on MCF7, 3.93 µM (inactive). Moreover, the GI50 in the experiment on MDA-MB-231 is 5.02 µM (inactive); with MDA-N, 1.23 µM (inactive); in the experiment on MOLT-4, 2.54 µM (inactive); in the experiment with OVCAR-3, 2.51 µM (inactive); in the experiment with OVCAR-8, 6.85 µM (inactive); with PC-3 it was 2.5 µM (inactive). Besides, the GI50 was 2.57 µM (inactive) with SF-539; 0.923 µM (active) in the experiment with SNB-19; 1.4 µM (inactive) in the experiment with SR; 3.18 µM (inactive) in the experiment with SW-620; 23.3 µM (inactive) with TK-10; 2.9 µM (inactive) in the experiment with UACC-257. Further, the GI50 with UO-31 is > 100 µM (inactive).

In the case of `Nc1c(C(=O)O)c2ccc([N+](=O)[O-])cc2c(=O)n1-c1nc2ccccc2s1`, the GI50 with A549, in the experiment on CCRF-CEM, in the experiment on HCT-116, with IGROV-1, in the experiment with M14 and in the experiment with MCF7 was > 100 µM (inactive) in each case. Besides, the GI50 in the experiment on MDA-MB-231, in the experiment on MDA-N, in the experiment with MOLT-4, in the experiment with OVCAR-3, with OVCAR-8 and in the experiment on PC-3 was > 100 µM (inactive) throughout. In addition, the GI50 in the experiment with SNB-19, with SR, in the experiment with SW-620 and in the experiment on UO-31 was > 100 µM (inactive) throughout.

Turning to `CCOC(=O)Oc1cc2ccsc2c2c1c1ccccc1n2C(=O)OCC`, the GI50 is 48.9 µM (inactive) in the experiment with A549; > 100 µM (inactive) with CCRF-CEM; 54.6 µM (inactive) in the experiment on HCT-116; > 100 µM (inactive) with IGROV-1; 31.3 µM (inactive) with M14; 59 µM (inactive) with MCF7. Besides, the GI50 in the experiment with MDA-MB-231 is 35.6 µM (inactive); in the experiment with MDA-N it was 31 µM (inactive); in the experiment with MOLT-4, > 100 µM (inactive); in the experiment on OVCAR-3 it was 70.1 µM (inactive); in the experiment with OVCAR-8 it was 87.7 µM (inactive); in the experiment on PC-3, 38.2 µM (inactive). For the same compound, the GI50 is 36.4 µM (inactive) with SF-539; > 100 µM (inactive) in the experiment with SR; 94.8 µM (inactive) in the experiment with SW-620; 50 µM (inactive) with TK-10; 91 µM (inactive) in the experiment with UACC-257; 24.2 µM (inactive) with UO-31.

As to `COc1ccc2c(c1OC)C(=O)O[C@@H]2[C@H]1c2c(cc3c(c2OC)OCO3)CCN1C` [NOSCAPINE], the GI50 with A549 was 72.9 µM (inactive); in the experiment with CCRF-CEM it was 12.9 µM (inactive); with HCT-116, 50.5 µM (inactive); in the experiment on IGROV-1, 62.7 µM (inactive); in the experiment with M14 it was 39.2 µM (inactive); in the experiment on MCF7, 42.3 µM (inactive). In addition, the GI50 in the experiment with MDA-MB-231 was 76.6 µM (inactive); in the experiment on MDA-N, 23.1 µM (inactive); in the experiment on MOLT-4 it was 23.5 µM (inactive); in the experiment on OVCAR-3, 16.5 µM (inactive); in the experiment with OVCAR-8 it was 63.5 µM (inactive); with PC-3 it was 50.1 µM (inactive). In addition, the GI50 with SF-539 is 30.8 µM (inactive); in the experiment with SNB-19, 80.5 µM (inactive); in the experiment with SR, 38.8 µM (inactive); in the experiment with SW-620, 27 µM (inactive); in the experiment with UACC-257 it was 55.1 µM (inactive); in the experiment on UO-31, 69 µM (inactive).

The GI50 is the concentration that inhibits growth by half.
